Source: patent US8067204B2, “Long-chain chondroitin sugar chain and method for producing the same and method for promoting synthesis of chondroitin” (Seikagaku Corporation, priority 2005, dated 2011)

Biological target: T1, bacterial cell enzyme (E. coli expressing CH polymerase K4CP) (Escherichia coli, UniProt Q8L0V4)
T1 construct: His tag (from vector pTrcHis); expressed in transfected cells; host or cells: E. coli transformed with the pTrcHis-K4CP vector and induced with IPTG; The whole-cell pellet was used as the enzyme; TOP10 is named only as the preferred host
T1 sequence (Q8L0V4 whole entry): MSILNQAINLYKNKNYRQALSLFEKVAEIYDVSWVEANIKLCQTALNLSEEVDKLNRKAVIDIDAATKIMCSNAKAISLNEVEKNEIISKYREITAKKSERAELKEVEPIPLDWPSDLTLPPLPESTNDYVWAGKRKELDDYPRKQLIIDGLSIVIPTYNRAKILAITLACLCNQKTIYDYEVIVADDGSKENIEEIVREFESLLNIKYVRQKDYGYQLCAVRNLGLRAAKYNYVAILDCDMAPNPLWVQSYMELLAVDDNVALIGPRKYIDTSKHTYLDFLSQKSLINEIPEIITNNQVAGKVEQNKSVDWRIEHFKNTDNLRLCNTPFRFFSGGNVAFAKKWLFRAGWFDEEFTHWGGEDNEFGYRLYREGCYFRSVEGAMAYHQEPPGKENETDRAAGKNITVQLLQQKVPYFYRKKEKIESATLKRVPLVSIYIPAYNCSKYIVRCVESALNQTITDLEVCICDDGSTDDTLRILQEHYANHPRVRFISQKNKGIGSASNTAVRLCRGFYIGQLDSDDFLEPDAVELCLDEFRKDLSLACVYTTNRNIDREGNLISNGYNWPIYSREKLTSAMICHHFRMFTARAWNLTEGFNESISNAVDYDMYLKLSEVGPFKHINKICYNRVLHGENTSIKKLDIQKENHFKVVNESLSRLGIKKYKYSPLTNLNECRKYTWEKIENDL
Experiment: Incorporation of [3H]GalNAc into the polymer (CH) fraction by the bacterial cell enzyme
Assay type: biochemical, Escherichia coli K4 strain
Details: for influence of surfactant on incorporation of [3H]GalNAc: FIG. 4
Protocol: According to the method described in Japanese Patent Application No. 2003-199583, the gene of the CH polymerase (K4CP) enzyme derived from E. coli and an expression vector were prepared. the plasmid pTrcHis (manufactured by Invitrogen Corporation) was used as the expression vector. The expression vector obtained by the method was introduced to E. coli. The E. coli was cultured at 37° C. in an ampicillin-containing LB medium until absorbance of the culture medium reached about 0.6 at a wavelength of 600 nm. β-isopropylthiogalactoside (IPTG), which is an expression induction molecule, was added to the culture medium in such an amount that attains a final concentration of 1 mM, and culture was further performed at 37° C. for 3 hours to induce an enzyme expression. 1 ml of the culture medium was taken and transferred to a centrifugation tube to undergo centrifugation at 10,000 rpm for 1 minute. After the supernatant was discarded, a cell precipitate was used a bacterial cell enzyme. Further, the cell precipitate can maintain the enzymatic activity at least for 1 year by storing at −80° C.
To the bacterial cell enzyme obtained in Example 1, 50 mM of Tris-HCl (pH of 7.2) buffer solution containing 20 mM of MnCl2, 150 mM of NaCl, 0.1 nmol of CH6, 3 nmol of UDP-GalNAc, 0.2 μCi of UDP-[^3H] GalNAc, and 3 nmol of UDP-GlcUA, and a surfactant (Nymeen S-215; manufactured by NOF CORPORATION) at a final concentration of 0, 0.1, 0.2, 0.4, 1.0, or 2.0% was added and suspended. Each of the suspensions was shaken at 30° C. for 15 hours. After the reaction, each of the suspensions was heat-treated for 10 minutes in boiling water, and then centrifuged at 15,000 rpm for 5 minutes to remove a precipitate. Each of the supernatants was subjected to gel filtration using Superdex peptide HR 10/30 column (manufactured by Amersham Biosciences Co., Ltd.). The sugar chains in each of the eluted solutions were detected based on the absorbance at 225 nm.
An eluted fraction which corresponds to the absorption peak residing in a polymer region was obtained, and an incorporation of [^3H] GalNAc was detected. The incorporation was shown by the ratio (%) of the incorporated radioactivity with respect to the total radioactivity as 100%.
(§1) The same test as Example 3 was performed using various kinds of surfactants each having a final concentration of 0.4% to examine how various kinds of surfactants influence on the incorporation of [^3H] GalNAc. As an enzyme, the bacterial cell enzyme produced in Example 1 was used. Further, the surfactants used are described below.
as §1, with “organic solvents” for “surfactants”, “1%” for “0.4%”, “the influence of the” for “how”, “organic solvents” for “surfactants influence”, “prepared” for “produced”
The incorporation was shown by the ratio (%) of the incorporated radioactivity with respect to the total radioactivity of [^3H] GalNAc used as 100%. It should be noted that the term “without organic solvent” in FIG. 5 means a case where the bacterial cell enzyme was reacted in the absence of organic solvents.
Besides, in order to examine the concentration dependency in the case of using chloroform as an organic solvent, the same test as Example 3 was performed by setting chloroform concentration in the enzyme reaction solution to 0, 0.5, 1.0, 2.0, 5.0, or 10.0%, thereby the amount of incorporation of [^3H] GalNAc in the polymer fraction was examined.

[1] = surfactant final concentration 0.4%

In the case of `ClC(Cl)Cl` [chloroform, Chloroform], the “incorporation of [3H]GalNAc in the polymer fraction, dependence on chloroform concentration” value (chloroform concentration more than 0% to less than 5% (tested 0, 0.5, 1.0, 2.0, 5.0, 10.0%), FIG. 6) is reported as “promoted” and the “influence of organic solvent on incorporation of [3H]GalNAc” value (organic solvent final concentration 1%, FIG. 5) is reported as “promoted the incorporation”.

With `CCCCCCCCCS[C@@H]1O[C@H](CO)[C@@H](O[C@H]2O[C@H](CO)[C@@H](O)[C@H](O)[C@H]2O)[C@H](O)[C@H]1O` [n-nonyl-β-D-thiomaltopyranoside] the “influence of surfactant on incorporation of [3H]GalNAc” value (from here on “influence of surfactant”) [1] was “particularly efficient incorporation”.

Sucrose monocaprate was tested, and the “influence of surfactant” value [1] was “particularly efficient incorporation”.

Sucrose monolaurate was tested, and the “influence of surfactant” value [1] was “particularly efficient incorporation”.

For “polyoxyethylene octadecyl amine [Nymeen S-215]”, the “incorporation of [3H]GalNAc into the polymer fraction (ratio of incorporated to total radioactivity)” value (surfactant concentration 0.4% or more at the time of the enzyme reaction, 30° C., 15 hours, FIG. 1) was “about 37%” and the “incorporation of used [3H]GalNAc into the polymer fraction” value (surfactant final concentration 0.4%, Example 4, reconfirmation) was “about 37%”.
